US9096538B2, “Pharmaceutical comprising PPAR agonist” (Senju Pharmaceutical Co., Ltd., priority 2005, dated 2015)

Key:
[1] = system: normal human corneal epithelial cell; test: Test Example 6: increase in cell number, normal human corneal epithelial cell, 48 hours (Cell Counting Kit-8); assay type: cell-based; settings: 10^−8 M, no addition group = 100%, average ± standard deviation, N = 4 to 5
Method: (§1) A normal human corneal epithelial cell (KURABO) was used.
As the test substance, the following compounds were used. • PPARδ Agonist: GW-501516 (Alexis), GW-0742 (Sigma-Aldrich)
Only basal medium (no addition group) • [2] Basal medium+GW-501516 (final concentration: 0.01 μM) • [3] Basal medium+GW-0742 (final concentration: 0.01 μM)

[2] = system: rabbit corneal epithelial cell; test: Test Example 1: increase in cell number, cultured rabbit corneal epithelial cell (Cell Counting Kit-8); assay type: cell-based; settings: 48 hours, no addition group = 100%, average ± standard deviation, N = 5
Method: A male rabbit (Japanese white, […] LABES Co., Ltd.) was used. The experimental animal was used according to the International Guiding Principles for Biomedical Research Involving Animals.
A corneal epithelial cell was prepared from rabbit eyeballs. A cornea was excised from isolated eyeballs, and stored in Dulbecco's phosphate buffered saline (D-PBS; Invitrogen), and this was transferred to a clean bench. The following cell preparation procedures were all performed sterilely.
The isolated corneal segment was washed with D-PBS with 1% penicillin-streptomycin (Invitrogen) added thereto three times, and was transferred to a minimum essential medium (MEM; Invitrogen). A corneal endothelial cell and a Descemet's membrane of the corneal segment immersed in MEM were peeled with a knife (Alcon) for ocular operation, and the corneal segment (corneal stroma and corneal epithelium) after peeling was transferred to MEM to which dispase II (Roche Diagnostics) had been added to 2.4 U/mL. This was incubated at 37° C. for 1 hour and, thereafter, the dispase II-treated corneal segment was transferred to MEM. The corneal epithelium of the corneal segment immersed in MEM was peeled with the knife for ocular operation, and the corneal segment residue (corneal stroma) was removed from MEM. The peeled corneal epithelial cell and the MEM containing same were recovered in a 50 mL centrifuge tube, subjected to centrifugation at 1,500 rpm for 5 minutes at room temperature. The supernatant was discarded to give a corneal epithelial cell layer. To the corneal epithelial cell layer was added 1 mL of trypsin-EDTA (Invitrogen) and, after thorough mixing, the cells were incubated at 37° C. for 5 minutes to dissociate adhesion between the cells. To this was added 9 mL of MEM containing 10% fetal bovine serum (FBS; Invitrogen) to stop the enzymatic reaction, and this was subjected again to centrifugation at room temperature and 1,500 rpm for 5 minutes to obtain the corneal epithelial cell layer. To the resulting corneal epithelial cell layer was added […] of a serum-free liquid medium for proliferating a normal rabbit corneal epithelial cell (RCGM2; Kurabo Industries LTD.) to suspend the cell, and this was seeded into a culture dish (IWAKI) for culturing a cell having a diameter of 10 cm, to which 9 mL of RCGM2 had been added. […] The culture medium was exchanged with a fresh culture medium every 48 hours until the test day.
As the test substance, the following compounds were used. • PPARα agonist: WY-14643 (Calbiochem) and fenofibrate (Sigma-Aldrich) • PPARδ agonist: L-165041 (Sigma-Aldrich)
(§2) For studying the effect of promoting cell proliferation by each test substance, a culture medium prepared by removing a mouse-derived epithelial growth factor (mEGF) attached to RCGM2, from RCGM2, was used as a basal medium, while as a positive control for confirming the effect of promoting cell proliferation, a medium with an mEGF added thereto (basal medium+10 ng/mL mEGF) was used according to instructions of an RCGM2 preparation protocol.
As a culture dish for a test of cell proliferation promotion, a 96-well culture dish for tissue culture (Corning) was used. On the day before the test, each 50 μL of 0.01% type I collagen (Nitta Gelatin Inc.) was dispensed into each well of the culture dish, and coating was performed at 4° C. until immediately before the test. On the test day, after a type I collagen solution was removed, the bottom of the culture dish was washed three times using D-PBS, and this was used in the test as a collagen-treated culture dish.
In the test, a rabbit corneal epithelial cell which had been cultured to subconfluent in a culture dish having a diameter of 10 cm was used. After the culture medium was removed, the bottom of the culture dish was washed two times using D-PBS, to this was added 1 mL of trypsin-EDTA, this was incubated at 37° C. for 5 minutes and thereby, the cell was peeled from the bottom of the culture dish. […]

[3] = system: monkey meibomian gland epithelial cell; test: Test Example 3: increase in cell number, cultured monkey meibomian gland epithelial cell (Cell Counting Kit-8); assay type: cell-based, cynomolgus monkey; settings: 48 + 48 hours; for Cell proliferation (%): no addition group = 100%, average ± standard deviation, N = 5
Method: A female cynomolgus monkey (Environmental Biological Life Science Research Center) was used. The experimental animal was used according to the International Guiding Principles for Biomedical Research Involving Animals.
A meibomian gland epithelial cell was prepared from a monkey eyelid. An eyelid was isolated, and stored in Dulbecco's phosphate buffered saline (D-PBS; Invitrogen), and this was transferred to a clean bench. The following cell preparation procedures were all performed sterilely.
After the isolated eyelid was immersed in 80% ethanol for 30 seconds, the eyelid was washed with D-PBS with 1% penicillin-streptomycin (Invitrogen) added thereto three times, and transferred to a minimum essential medium (MEM; Invitrogen). A fat tissue and a muscle tissue surrounding a meibomian gland tissue were removed under a stereomicroscope, and this was transferred to MEM containing 0.475 U/mL of collagenase A (Roche Diagnostics) and 2.4 U/mL of dispase II (Roche Diagnostics), and incubated at 37° C. overnight. After completion of incubation, the enzyme-treated tissue was placed again under the stereomicroscope, eyelashes and an eyelid connective tissue were removed, and a meibomian gland tissue was isolated. To the isolated gland tissue was added 1 mL of trypsin-EDTA (Invitrogen), and this was incubated at 37° C. for 5 minutes. After incubation, to this was added 9 mL of MEM containing 10% FBS to stop the enzymatic reaction, then, suction and exhaustion were repeated five times using a 10 mL pipette and, further, five times using an injection syringe equipped with a 21 G injection needle to disperse tissue-constituting cells. […] The cell suspension which had passed through the filter was recovered in a 50 mL centrifuge tube, and subjected to centrifugation at room temperature and 1,500 rpm for 5 minutes. To a cell layer containing an objective cell obtained by centrifugation was added 80 μL of D-PBS containing 0.5% bovine serum albumin (BSA; Sigma-Aldrich) to sufficiently suspend the cell, to this was added 20 μL of Anti-Fibroblast Microbeads (Militenyi Biotec), and this was allowed to stand at room temperature for 30 minutes. After completion of the reaction with an antibody, to this was added 2 mL of D-PBS containing 0.5% BSA, and this was subjected again to centrifugation at room temperature and 1,500 rpm for 5 minutes. To a cell layer containing an objective cell obtained by centrifugation was added 1 mL of D-PBS containing 0.5% BSA to sufficiently suspend the cell, and this was added dropwise to an LD column (Militenyi Biotec) equilibrated in advance using a column washing solution (D-PBS containing 2 mM EDTA (Dojindo Laboratories) and 0.5% BSA). Then, 2 mL of the column washing solution was added dropwise to the LD column. […] The cell recovered in the centrifuge tube was subjected again to centrifugation at room temperature and 1,500 rpm for 5 minutes to remove the supernatant. To this precipitation was added 1 mL of Defined Keratinocyte-Serum Free Medium (DK-SFM; Invitrogen) to suspend the cell and thereby, a meibomian gland epithelial cell suspension was prepared. The prepared cell was seeded on a culture dish (IWAKI) for cell culturing having a diameter of 3.5 cm which had been coated with a type I collagen solution (Nitta Gelatin Inc.) in advance, and to which 3 mL of DK-SFM had been added. The seeded cell was cultured in an incubator (SANYO) set at 37° C., 5% CO2, 95% air, and 100% humidity, and the culture medium was exchanged with a fresh culture medium every 48 hours until the test day.
Each test substance was dissolved in ethanol (Wako Pure Chemical Industries, Ltd.) to a 200-fold concentration of a final concentration in the culture medium, and this was stored at −80° C. until immediately before use.
As a culture dish for a cell proliferation promotion test, a 96-well culture dish for tissue culture (Corning) was used.

[4] = system: normal human corneal epithelial cell; test: Test Example 5: increase in cell number, normal human corneal epithelial cell, 24 hours (Cell Counting Kit-8); assay type: cell-based; settings: mEGF 1 ng/mL, no addition group = 100%, average ± standard deviation, N = 3 to 4
Method: as §1
As the test substance, the following compounds were used. PPARδ agonist: L-165041 (Sigma-Aldrich), GW-501516 (Alexis)
In addition, as a positive control for confirming the cell proliferation promoting effect, a medium in which a mouse-derived epithelial growth factor (mEGF) contained in an HCGS proliferation additive set (KURABO) was added to a basal medium (basal medium+1 ng/mL mEGF) was used.
This cell suspension was seeded on a fibronectin-coated multiwell plate (24 well, BECTON DICKINSON) so that the cell number became 2×10^4 cells/500 μL/well (since the bottom area is 2 cm^2, the number is 1×10^4 cells/cm^2).
Further, 24 hours thereafter, the culture medium was exchanged with each 400 μL of the following culture media. • [1] Only basal medium (no addition group) • [2] Basal medium+mEGF (final concentration: 1 ng/mL; positive control group) • [3] Basal medium+L-165041 (final concentration: 0.01 μM and 0.1 μM) • [4] Basal medium+GW-501516 (final concentration: 0.001 μM and 0.01 μM)

[5] = system: rabbit corneal epithelial cell; test: Test Example 2: increase in cell number, cultured rabbit corneal epithelial cell, 120 hours (Cell Counting Kit-8); assay type: cell-based; settings: mEGF 10 ng/mL, no addition group = 100%, average ± standard deviation, N = 5
Method: A male rabbit (Japanese white, weight: about 1.5 kg, […] LABES Co., Ltd.) was used. The experimental animal was used according to the International Guiding Principles for Biomedical Research Involving Animals.
A rabbit corneal epithelial cell was prepared using the same process as that of (Test example 1).
As the test substance, the following compounds were used. • PPARδ agonist: L-165041 (Sigma-Aldrich) and GW-501516 (Alexis)
as §2
Collagen treatment of the culture dish was performed using the same process as that of (Test Example1).
In the test, a rabbit corneal epithelial cell which had been cultured to subconfluent in a culture dish having a diameter of 10 cm was used. After the culture medium was removed, the bottom of the culture dish was washed two times using D-PBS, to this was added 1 mL of trypsin-EDTA, this was incubated at 37° C. for 5 minutes and thereby, the cell was peeled from the bottom of the culture dish. After incubation, 9 mL of MEM containing 10% FBS was added to the culture dish to stop the enzymatic reaction, and this was subjected to centrifugation at room temperature and 1,500 rpm for 5 minutes to obtain a corneal epithelial cell layer. To the resulting cell was added an appropriate amount of RCGM2 to a cell concentration of 1×10^5 cells/mL to suspend the cell. Each 64 μL of this cell suspension was dispensed in each well at the cell number per bottom area (0.32 cm^2) of the collagen-treated 96-well culture dish for tissue culture of […]. […] After 24 hours from cell seeding, the culture medium was discarded, and each 100 μL of the following culture media were freshly dispensed into each well of the culture dish. • [1] Only basal medium (no addition group) • [2] Basal medium+mEGF (final concentration: 10 ng/mL; positive control group) • [3] Basal medium+L-165041 (final concentration: 0.1 μM and 1 μM) • [4] Basal medium+GW-501516 (final concentration: 0.01 μM and 0.1 μM)
The culture supernatant of each well was removed every 48 hours from exchange of the culture medium containing a test substance, and each 100 μL of the freshly prepared culture medium was dispensed into each well.

Cc1cc(SCc2sc(-c3ccc(C(F)(F)F)c(F)c3)nc2C)ccc1OCC(=O)O [GW-0742, (4-(((2-(3-fluoro-4-(trifluoromethyl)phenyl)-4-methyl-5-thiazolyl)methyl)thio)-2-methylphenoxy)acetic acid] was tested. Which “Cell proliferation (%)” value [1] did it give?
Its value is 124.1 ± 13.5%.

Cc1cccc(Nc2cc(Cl)nc(SCC(=O)O)n2)c1C [WY-14643, ((4-chloro-6-((2,3-dimethylphenyl)amino)-2-pyrimidinyl)thio)acetic acid] was tested. Which “Cell proliferation (%)” value ([2]; 10^−6 M) did it give?
The value was 155.5 ± 9.4%.

What about the “Cell proliferation (%)” value ([2]; 10^−7 M) of the same molecule?
Its value is 148.9 ± 15.0%.

With CC(C)OC(=O)C(C)(C)Oc1ccc(C(=O)c2ccc(Cl)cc2)cc1 [fenofibrate, 1-methylethyl 2-(4-(4-chlorobenzoyl)phenoxy)-2-methylpropionate] as the molecule, how does the “Cell proliferation (%)” value ([3]; 10^−5 M) read?
The value was 127.8 ± 5.2%.

And the “Cell proliferation (%)” value ([3]; 10^−6 M)?
Its value is 114.5 ± 4.5%.

And the “cell proliferation compared to the no addition group (in words)” value ([3]; p<0.01 where significant)?
The value was “significantly higher than in the no addition group”.

What about the “Cell proliferation (%)” value ([2]; 10^−5 M) of the same molecule?
The value was 147.0 ± 3.2%.

And the “Cell proliferation (%)” value ([2]; 10^−6 M)?
Its value is 147.3 ± 11.8%.

Which “Cell proliferation (%)” value ([3]; 10^−6 M) does the source give for Cc1c(C)c2c(c(C)c1O)CCC(C)(COc1ccc(CC3SC(=O)NC3=O)cc1)O2 (stereo not shown) [troglitazone] here?
The value was 99.9 ± 1.9%.

And the “Cell proliferation (%)” value ([3]; 10^−7 M)?
The value was 101.6 ± 4.0%.

Which “Cell proliferation (%)” value [4] does the source give for “mEGF: mouse-derived epithelial growth factor, positive control for cell proliferation (NSYPGCPSSYDGYCLNGGVCMHIESLDSYTCNCVIGYSGDRCQTRDLRWWELR; not fully specified; Epidermal growth factor; UniProt P01132 977-1029, looked up)” here?
Its value is 112.1 ± 1.5%.

What about the “Cell proliferation (%)” value [5] of the same molecule?
Its value is 222.1 ± 50.9%.

And the “Cell proliferation (%)” value ([2]; mEGF 10 ng/mL)?
The value was 144.1 ± 23.1%.
